Where two headings read alike, the source gives them in different places. Square brackets hold non-standard residues; d marks the D form. Peptide text beside a SMILES is read from it. * marks the point of attachment. Dolaproine = CO[C@@H]([C@@H]1CCCN1)[C@@H](C)C(=O)O; Dil = CC[C@H](C)[C@H](NC)[C@@H](CC(=O)O)OC; X1 = C[C@@H](N*)[C@@H](O)c1ccccc1; NMeV = CN[C@H](C(=O)O)C(C)C
Assays:
[1] = test system: HEK 293T (human embryonic kidney cancer cell line); details: read-out: IC50 HEK 293T
[2] = test system: MES SA DX (human uterine sarcoma cell line with marked multidrug resistance); details: read-out: IC50 MES SA DX
[3] = test system: MES SA (human uterine sarcoma); details: read-out: IC50 MES SA
[4] = test system: MES SA DX (human uterine sarcoma cell line with marked multidrug resistance); experiment: cells; details: 72 h, read-out: IC50 MES SA DX
[5] = test system: MES SA (human uterine sarcoma); experiment: cells; details: 72 h, read-out: IC50 MES SA
[6] = test system: HEK 293T (human embryonic kidney cancer cell line); experiment: cells; details: 72 h, read-out: IC50 HEK 293T

Row | IC50 [4] | IC50 [5] | SMILES | IC50 [1] | IC50 [2] | IC50 [3] | IC50 [6]
1 | – | – | CC[C@H](C)[C@@H]([C@@H](CC(=O)N1CCC[C@H]1[C@H](OC)[C@@H](C)C(=O)N[C@H](C)[C@@H](O)c1ccccc1)OC)N(C)C(=O)[C@@H](NC(=O)[C@@H](NC)C(C)C)C(C)C [MMAE, monomethyl auristatin E, reference compound] (H-[NMeV]V[Dil][Dolaproine]-X1) | 0.08 nM | > 70 nM | 0.06 nM | –
2 | – | – | COc1c2c(c(O)c3c4c(c(C)cc13)[C@@H]1O[C@@]3(C(OC)OC)O[C@@H]1[C@@](O[C@H]1C[C@@H](O)[C@@](O)(C(C)=O)[C@H](C)O1)(O4)[C@@]31CO1)C(=O)[C@@H](O)C[C@@H]2O[C@H]1C[C@@](C)(O)[C@H](OC(C)=O)[C@H](C)O1 [Trioxacarcin A] | 0.702 nM | 204 nM | 0.74 nM | –
3 | – | – | COc1c2c(c(O)c3c4c(c(C)cc13)[C@@H]1O[C@@]3(C(OC)OC)O[C@@H]1[C@@](O[C@H]1C[C@@H](O)[C@@](O)(C(C)=O)[C@H](C)O1)(O4)[C@@]31CO1)C(=O)[C@@H](O)C[C@@H]2O[C@H]1C[C@@](C)(O)[C@H](O)[C@H](C)O1 [Trioxacarcin D, reference compound] | 8.02 nM | > 1000 nM | 11.1 nM | –
4 | 49.3 nM | 51.9 nM | COc1c2c(c(O)c3c4c(c(C)cc13)[C@H]1O[C@]3(C5OCCO5)O[C@@H]1[C@@](O)(O4)[C@@]31CO1)C(=O)CCC2 [Trx8, (1S,2S,3aS,4R,13aR)-2-(1,3-Dioxolan-2-yl)-12,13a-dihydroxy-7-methoxy-5-methyl-3a,4,8,9,10,13a-hexahydro-11H-spiro[2,4-epoxyfuro[3,2-b]naphtho[2,3-h]chromene-1,2′-oxiran]-11-one] | – | – | – | 30.7 nM
5 | 2.18 nM | 3.88 nM | COCO[C@@]12Oc3c(c(C)cc4c(OC)c5c(c(O)c34)C(=O)CCC5)[C@H]3O[C@](C4OCCO4)(O[C@@H]31)[C@]21CO1 [Trx10, (1S,2S,3aS,4R,13aS)-2-(1,3-Dioxolan-2-yl)-12-hydroxy-7-methoxy-13a-(methoxymethoxy)-5-methyl-3a,4,8,9,10,13a-hexahydro-11H-spiro[2,4-epoxyfuro[3,2-b]naphtho[2,3-h]chromene-1,2′-oxiran]-11-one] | – | – | – | 1.51 nM
6 | 5.72 nM | 3.72 nM | COc1c2c(c(O)c3c4c(c(C)cc13)C1OC3(C5OCCCO5)OC1[C@@](O)(O4)[C@@]31CO1)C(=O)CCC2 (stereo partly drawn) [Trx12] | – | – | – | 2.46 nM
7 | 17.4 nM | 6.11 nM | COc1c2c(c(O)c3c4c(c(C)cc13)C1OC3(C5OCCCO5)OC1[C@@](OC(C)=O)(O4)[C@@]31CO1)C(=O)CCC2 (stereo partly drawn) [Trx14] | – | – | – | 6.89 nM
8 | 3.48 nM | 4.91 nM | C=CCO[C@@]12Oc3c(c(C)cc4c(OC)c5c(c(O)c34)C(=O)CCC5)[C@H]3O[C@](C4OCCCO4)(O[C@@H]31)[C@]21CO1 [Trx17, (1S,2S,3aS,4R,13aR)-13a-(Allyloxy)-2-(1,3-dioxan-2-yl)-12-hydroxy-7-methoxy-5-methyl-3a,4,8,9,10,13a-hexahydro-11H-spiro[2,4-epoxyfuro[3,2-b]naphtho[2,3-h]chromene-1,2′-oxiran]-11-one] | – | – | – | 2.77 nM
9 | – | – | COc1c2c(c(O)c3c4c(c(C)cc13)C1OC3(C5OCCCO5)OC1[C@@](OCC=CCO[C@@]15Oc6c(c(C)cc7c(OC)c8c(c(O)c67)C(=O)CCC8)C6OC(C7OCCCO7)(OC61)[C@]51CO1)(O4)[C@@]31CO1)C(=O)CCC2 (stereo partly drawn) [Trx24, (1S,2S,3aS,4R,13aR,1′″S,2′″S,3a′″S,4′″R,13a′″R)-13a,13a′-[(2Z)-but-2-ene-1,4-diylbis(oxy)]bis[2-(1,3-dioxan-2-yl)-12-hydroxy-7-methoxy-5-methyl-3a,4,8,9,10,13a-hexahydro-11H-spiro[2,4-epoxyfuro[3,2-b]naphtho[2,3-h]chromene-1,2′-oxiran]-11-one]] | – | > 1000 nM | > 1000 nM | 115 nM
10 | 11.9 nM | 11.1 nM | CC(=O)Oc1cccc2c1C(=O)c1c(cc(C)c3c1O[C@]1(OC(C)=O)[C@H]4O[C@@](C5OCCCO5)(O[C@H]34)[C@]13CO3)C2=O [Trx28, (1S,2S,3aS,4R,13aS)-2-(1,3-Dioxan-2-yl)-5-methyl-7,12-dioxo-3a,4,7,12-tetrahydro-13aH-spiro[2,4-epoxyfuro[3,2-b]naphtho[2,3-h]chromene-1,2′-oxirane]-11,13a-diyl diacetate] | – | – | – | 11.2 nM
11 | 1.05 nM | 1.44 nM | CO[C@@]12Oc3c4c(cc(C)c3[C@H]3O[C@](C5OCCCO5)(O[C@@H]31)[C@]21CO1)C(=O)c1cccc(OC(C)=O)c1C4=O [Trx29, (1S,2S,3aS,4R,13aR)-2-(1,3-Dioxan-2-yl)-13a-methoxy-5-methyl-7,12-dioxo-3a,7,12,13a-tetrahydro-4H-spiro[2,4-epoxyfuro[3,2-b]naphtho[2,3-h]chromene-1,2′-oxiran]-11-yl acetate] | – | – | – | 1.87 nM
12 | 37.8 nM | 42 nM | Cc1cc2c(c3c1[C@H]1O[C@]4(C5OCCCO5)O[C@@H]1[C@@](O)(O3)[C@@]41CO1)C(=O)c1c(O)cccc1C2=O [Trx30, (1S,2S,3aS,4R,13aR)-2-(1,3-Dioxan-2-yl)-11,13a-dihydroxy-5-methyl-3a,13a-dihydro-4H-spiro[2,4-epoxyfuro[3,2-b]naphtho[2,3-h]chromene-1,2′-oxirane]-7,12-dione] | – | – | – | 50.5 nM
13 | 0.65 nM | 1.09 nM | CO[C@@]12Oc3c4c(cc(C)c3[C@H]3O[C@](C5OCCCO5)(O[C@@H]31)[C@]21CO1)C(=O)c1cccc(O)c1C4=O [Trx31, (1S,2S,3aS,4R,13aR)-2-(1,3-Dioxan-2-yl)-11-hydroxy-13a-methoxy-5-methyl-3a,13a-dihydro-4H-spiro[2,4-epoxyfuro[3,2-b]naphtho[2,3-h]chromene-1,2′-oxirane]-7,12-dione] | – | – | – | 1.44 nM
14 | 4.41 nM | 5.96 nM | CC(=O)Oc1c(Cl)ccc2c1C(=O)c1c(cc(C)c3c1O[C@]1(OC(C)=O)[C@H]4O[C@@](C5OCCCO5)(O[C@H]34)[C@]13CO3)C2=O [Trx32, (1S,2S,3aS,4R,13aS)-10-Chloro-2-(1,3-dioxan-2-yl)-5-methyl-7,12-dioxo-3a,4,7,12-tetrahydro-13aH-spiro[2,4-epoxyfuro[3,2-b]naphtho[2,3-h]chromene-1,2′-oxirane]-11,13a-diyl diacetate] | – | – | – | 6.73 nM
15 | 33.2 nM | 54.3 nM | CO[C@@]12Oc3c4c(cc(C)c3[C@H]3O[C@](C5OCCCO5)(O[C@@H]31)[C@]21CO1)C(=O)c1ccc(Cl)c(OC(C)=O)c1C4=O [Trx33, (1S,2S,3aS,4R,13aR)-10-Chloro-2-(1,3-dioxan-2-yl)-13a-methoxy-5-methyl-7,12-dioxo-3a,7,12,13a-tetrahydro-4H-spiro[2,4-epoxyfuro[3,2-b]naphtho[2,3-h]chromene-1,2′-oxiran]-11-yl acetate] | – | – | – | 38.8 nM

Row | SMILES | IC50 [4] | IC50 [5] | IC50 [1] | IC50 [2] | IC50 [3] | IC50 [6]
16 | COc1c2c(c(O)c3c4c(c(C)cc13)[C@H]1O[C@]3(C5OCCO5)O[C@@H]1[C@](OC)(O4)[C@@]31CO1)C(=O)CCC2 [Trx9, (1S,2S,3aS,4R,13aS)-2-(1,3-Dioxolan-2-yl)-12-hydroxy-7,13a-dimethoxy-5-methyl-3a,4,8,9,10,13a-hexahydro-11H-spiro[2,4-epoxyfuro[3,2-b]naphtho[2,3-h]chromene-1,2′-oxiran]-11-one] | 2.63 nM | 4.67 nM | – | – | – | 2.04 nM
17 | C=CCOC(=O)N(C(C)C)[C@H]1CO[C@@H](O[C@@]23Oc4c(c(C)cc5c(OC)c6c(c(O)c45)C(=O)CCC6)C4OC(C5OCCCO5)(OC42)[C@]32CO2)C[C@@H]1OC (stereo partly drawn) [Trx18, (1S,13aS)-2-(1,3-Dioxan-2-yl)-12-hydroxy-7-methoxy-5-methyl-11-oxo-3a,4,8,9,10,11-hexahydro-13aH-spiro[2,4-epoxyfuro[3,2-b]naphtho[2,3-h]chromene-1,2′-oxiran]-13a-yl 4-{[(allyloxy)carbonyl](isopropyl)amino}-2,4-dideoxy-3-O-methyl-α-L-threo-pentopyranoside] | > 1000 nM | > 1000 nM | – | – | – | 40.2 nM
18 | COc1c2c(c(O)c3c4c(c(C)cc13)C1O[C@@]3(C5OCCCO5)OC1C(O[C@H]1C[C@H](OC)[C@@H](NC(C)C)CO1)(O4)[C@@]31CO1)C(=O)CCC2 (stereo partly drawn) [Trx19, (1S,2R)-2-(1,3-dioxan-2-yl)-12-hydroxy-7-methoxy-5-methyl-11-oxo-3a,4,8,9,10,11-hexahydro-13aH-spiro[2,4-epoxyfuro[3,2-b]naphtho[2,3-h]chromene-1,2′-oxiran]-13a-yl 2,4-dideoxy-4-(iso-propylamino)-3-O-methyl-α-L-threo-pentopyranoside] | 70.7 nM | 0.96 nM | – | – | – | 0.77 nM
19 | COc1c2c(c(O)c3c4c(c(C)cc13)C1O[C@@]3(C5OCCCO5)OC1[C@@](O[C@H]1C[C@H](OC(C)=O)[C@@](O)(C(C)=O)[C@H](C)O1)(O4)[C@@]31CO1)C(=O)CCC2 (stereo partly drawn) [Trx20, (1S,2R,13aS)-2-(1,3-dioxan-2-yl)-12-hydroxy-7-methoxy-5-methyl-11-oxo-3a,4,8,9,10,11-hexahydro-13aH-spiro[2,4-epoxyfuro[3,2-b]naphtho[2,3-h]chromene-1,2′-oxiran]-13a-yl 4-C-acetyl-3-O-acetyl-2,6-dideoxy-α-L-lyxo-hexopyranoside] | 52.4 nM | 5.14 nM | – | – | – | 4.31 nM
20 | COc1c2c(c(O)c3c4c(c(C)cc13)C1O[C@@]3(C5OCCCO5)OC1[C@@](O[C@H]1C[C@H](O)[C@@](O)([C@@H](C)O)[C@H](C)O1)(O4)[C@@]31CO1)C(=O)CCC2 (stereo partly drawn) [Trx23, (1S,2R,13aS)-2-(1,3-dioxan-2-yl)-12-hydroxy-7-methoxy-5-methyl-11-oxo-3a,4,8,9,10,11-hexahydro-13aH-spiro[2,4-epoxyfuro[3,2-b]naphtho[2,3-h]chromene-1,2′-oxiran]-13a-yl 2,6-dideoxy-4-C-[(1R)-1-hydroxyethyl]-α-L-lyxo-hexopyranoside] | 33.7 nM | 5.85 nM | – | – | – | 2.74 nM

Reference: patent publication US20210230178A1, “TRIOXACARCIN ANALOGS AND DIMERS AS POTENT ANTICANCER AGENTS” (William Marsh Rice University, priority 2017, published 2021)
